From patent US8450494B2, “Disubstituted benzamide derivatives as glucokinase (GK) activators” (Cadila Healthcare Limited, priority 2010, dated 2013) come the findings set out here.

The target in this assay is T1, glucokinase (GK) enzyme (Homo sapiens, UniProt P35557).
T1 sequence (P35557 1-465): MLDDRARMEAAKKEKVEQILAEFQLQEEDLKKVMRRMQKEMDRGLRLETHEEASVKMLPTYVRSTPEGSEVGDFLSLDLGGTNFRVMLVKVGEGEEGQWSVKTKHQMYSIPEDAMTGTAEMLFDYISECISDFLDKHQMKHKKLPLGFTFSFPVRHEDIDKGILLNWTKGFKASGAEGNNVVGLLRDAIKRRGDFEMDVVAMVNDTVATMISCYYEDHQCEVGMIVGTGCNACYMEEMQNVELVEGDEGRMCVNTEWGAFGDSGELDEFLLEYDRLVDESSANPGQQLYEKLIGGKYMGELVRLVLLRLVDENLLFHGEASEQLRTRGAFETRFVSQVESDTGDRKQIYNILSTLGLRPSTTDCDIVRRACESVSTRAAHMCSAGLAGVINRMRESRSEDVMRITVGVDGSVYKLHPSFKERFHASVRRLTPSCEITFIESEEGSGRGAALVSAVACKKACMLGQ
Kind of assay: In-vitro glucokinase (GK) enzyme activation assay (coupled with glucose-6-phosphate dehydrogenase, absorbance at 340). The assay is classed as biochemical. Conditions: glucose 2.5 mM, ATP 1 mM; for pEC50: GK activation; for activity at 0.1 µM / activity at 1 µM / activity at 5 µM / activity at 10 µM: read-out: % of GK activity wrt DMSO. As to the method: The compound of the invention was incubated with glucokinase (GK) enzyme (0.2 units) for 10 minutes in assay buffer at 26° C. After incubation, addition of glucose-6-phosphate dehydrogenase (2.5 units), ATP (1 mM) and glucose (2.5 mM). Absorbance is measured at 340 nm for 15 minutes with 10 second interval using UV transparent plate in kinetic mode on Spectramax-190 at 30° C.

pEC50: −log10 of the molar value.

`C=CCOc1cc(Oc2ccc(-c3nnc(C)o3)cc2)cc(C(=O)Nc2nccs2)c1` [Example 2.4, 3-(Allyloxy)-5-(4-(5-methyl-1,3,4-oxadiazol-2-yl)phenoxy)-N-(thiazol-2-yl)benzamide] gave a negative logarithm of the EC50 (pEC50) of 7.19. For the same compound, under “compound 0.1 uM”, the activity at 0.1 µM is 240%. Further, the activity at 1 µM (compound 1 uM) came to 284%. In addition, the activity at 5 µM (compound 5 uM) stood at 324%. Under “compound 10 uM”, the activity at 10 µM was found to be 311%.
As for `COCC(C)Oc1cc(Oc2ccc(-c3nnc(C)o3)cc2)cc(C(=O)Nc2nc(CC(=O)O)cs2)c1` (stereo not drawn) [Example 2.8], the “% of GK activity wrt DMSO” value reads like this: (compound 0.1 uM) 239.5%; (compound 1 uM) 323.6%; (compound 5 uM) 336.3%; (compound 10 uM) 328.9%.
With `COCC(C)Oc1cc(Oc2ccc(-c3nnc(C)o3)cc2)cc(C(=O)Nc2nccs2)c1` (stereo not drawn) [Example 1.1, 3-(1-Methoxypropan-2-yloxy)-5-(4-(5-methyl-1,3,4-oxadiazol-2-yl)phenoxy)-N-(thiazol-2-yl)benzamide], the pEC50 is 7.68. The activity at 0.1 µM (compound 0.1 uM) is 276%. In addition, the activity at 1 µM (compound 1 uM) stood at 309%. In addition, under “compound 5 uM”, the activity at 5 µM was determined as 316%. Further, where the note is “compound 10 uM”, the activity at 10 µM came to 309%.
On to `C=CCCOc1cc(Oc2ccc(-c3nnc(C)o3)cc2)cc(C(=O)Nc2nccs2)c1` [Example 1.2, 3-(But-3-enyloxy)-5-(4-(5-methyl-1,3,4-oxadiazol-2-yl)phenoxy)-N-(thiazol-2-yl)benzamide], for which the pEC50 is 7.09. Further, the activity at 0.1 µM (compound 0.1 uM) was determined as 167%. Besides, the activity at 1 µM (compound 1 uM) came to 229%. Besides, the activity at 5 µM (compound 5 uM) was 242%. In addition, the activity at 10 µM (compound 10 uM) was determined as 244%.
For `Cc1nnc(-c2ccc(Oc3cc(OCC45CC6CC(CC(C6)C4)C5)cc(C(=O)Nc4nccs4)c3)cc2)o1` [Example 1.9, 3-(4-(5-Methyl-1,3,4-oxadiazol-2-yl)phenoxy)-5-(admantanemethoxy)-N-(thiazol-2-yl)benzamide], the “% of GK activity wrt DMSO” value worked out at 121.83% (compound 0.1 uM), 137.7% (compound 1 uM), 141.3% (compound 5 uM) and 153.4% (compound 10 uM).
In turn, `Cc1nnc(-c2ccc(Oc3cc(OC(C)C4CC4)cc(C(=O)Nc4nccs4)c3)cc2)o1` (stereo not drawn) [Example 1.4, 3-(1-Cyclopropylethoxy)-5-(4-(5-methyl-1,3,4-oxadiazol-2-yl)phenoxy)-N-(thiazol-2-yl)benzamide] showed a pEC50 of 7.64. Besides, the activity at 0.1 µM (compound 0.1 uM) came to 282%. Moreover, the activity at 1 µM (compound 1 uM) is 313%. Also, for the setting “compound 5 uM”, the activity at 5 µM amounted to 314%. The activity at 10 µM (compound 10 uM) stood at 311%.
In the case of `COCC(C)Oc1cc(Oc2ccc(-c3nnc(C4CCCC4)o3)cc2)cc(C(=O)Nc2nccs2)c1` (stereo not drawn) [Example 2.31], the “% of GK activity wrt DMSO” value turned out to be 252.3% (compound 0.1 uM), 433.6% (compound 1 uM), 518.5% (compound 5 uM) and 470.8% (compound 10 uM).
Turning to `Cc1nnc(-c2ccc(Oc3cc(OCC(C)C)cc(C(=O)Nc4nccs4)c3)cc2)o1` [Example 2.5, 3-Isobutoxy-5-(4-(5-methyl-1,3,4-oxadiazol-2-yl)phenoxy)-N-(thiazol-2-yl)benzamide], the pEC50 was 6.99. Besides, the activity at 0.1 µM (compound 0.1 uM) was 195%. For the same compound, the activity at 1 µM (compound 1 uM) was 256%. The activity at 5 µM (compound 5 uM) worked out at 282%. Besides, the activity at 10 µM (compound 10 uM) turned out to be 278%.
For the compound `Cc1nnc(-c2ccc(Oc3cc(OCC4CCOCC4)cc(C(=O)Nc4nccs4)c3)cc2)o1` [Example 2.6], the “% of GK activity wrt DMSO” value by setting is: (compound 0.1 uM) 128.2%; (compound 1 uM) 196.4%; (compound 5 uM) 251.8%; (compound 10 uM) 249.3%.
`Cc1nnc(-c2ccc(Oc3cc(OCC4CCC5(CC5)C4)cc(C(=O)Nc4nccs4)c3)cc2)o1` (stereo not drawn) [Example 1.6, 3-(4-(5-Methyl-1,3,4-oxadiazol-2-yl)phenoxy)-5-(spiro[2.4]heptan-5-ylmethoxy)-N-(thiazol-2-yl)benzamide]: the activity at 0.1 µM (compound 0.1 uM) turned out to be 134%. Further, the activity at 1 µM (compound 1 uM) is 178%. Also, the activity at 5 µM (compound 5 uM) stood at 183%. Moreover, the activity at 10 µM (compound 10 uM) amounted to 165%.

A word on the pEC50: it is −log10 of the EC50, conventionally taken in molar units. The low end stands for a high EC50, the high end for a low EC50.
